Starred links: 1 amine or outer side, 2 acyl side, 3 side chain; linkers in the order of their positions; H or OH if unused. Positions of bridges follow the written chain, without caps; N, C: chain ends. Non-standard residues stand in square brackets, D forms with d. Residues, ends and D or L forms follow the SMILES beside them. Chains are numbered I, II in the order given. Actinocin(1to9) = Cc1c2oc3c(C)ccc(C(=O)[*:2])c3nc-2c(C(=O)[*:1])c(N)c1=O; NMeV = CN[C@H](C(=O)O)C(C)C; Sar = CNCC(=O)O
Biological target: recombinant CpLDH protein (Cryptosporidium parvum, UniProt Q9GT92, F198L/K295E/R251K)

Row | Compound | MEAN CpLDH INHIBITION (%)
1 | CC1=C2C(=CO[C@H](C)[C@H]2C)C(=O)C(C(=O)O)=C1O [NSC186] | -47.49%
2 | O=C1C(=O)c2ccccc2C(O)=C1CCCc1ccc(Oc2ccccc2)cc1 [NSC377] | -0.53%
3 | CC(=O)[O][Hg].c1ccc2c(c1)ccc1ccccc12 [NSC534] | -63.87%
4 | Nc1nc2n[nH]nc2c(=O)[nH]1 [NSC749] | -18.77%
5 | O=C(O)c1ccc(NC(c2ccccc2)c2ccc3cccnc3c2O)cc1 (centres unmarked) [NSC1011] | -0.99%
6 | NC1(C(=O)O)CCCC1 [NSC1026] | -29.26%
7 | CC(C)(Br)C(=O)C(Br)Br [NSC1027] | -2.97%
8 | c1coc(CNc2ncnc3[nH]ncc23)c1 [NSC1620] | -4.87%
9 | C1CCNCC1.S=C(S)N1CCCCC1 [NSC1906] | -58.60%
10 | Cc1cc(O)c(C(C)C)cc1C1(c2cc(C(C)C)c(O)cc2C)OC(=O)c2ccccc21 [NSC2186] | -64.59%
11 | CC(C)C1(Cl)CCC2C3(C)CCCC(C)(C(=O)O)C3CC(Cl)C2(Cl)C1Cl (centres unmarked) [NSC2979] | -29.91%
12 | O=Nc1ccc(O)c2ncccc12 [NSC3852] | -37.64%
13 | c1ccc(-c2cccc(-c3ccccn3)n2)nc1 [NSC3905] | -48.97%
14 | C1COCCN1.S=C(S)N1CCOCC1 [NSC4114] | -42.22%
15 | Cc1ccc2ccc3ccc(C)nc3c2n1 [NSC4280] | -27.03%
16 | C=C(C)[C@@H]1CC[C@]2(CO)CC[C@]3(C)[C@H](CC[C@@H]4[C@@]5(C)CC[C@H](O)C(C)(C)[C@@H]5CC[C@]43C)[C@@H]12 [NSC4644] | -25.29%
17 | Nc1nncs1 [NSC4728] | -23.83%
18 | O=[N+]([O-])c1ccc(N=Nc2c(O)[nH]c3ccccc23)c([N+](=O)[O-])c1 [NSC4810] | -33.40%
19 | CCN(CC)C(=S)[S-].[Na+] [NSC4857] | -37.64%
20 | CO[C@H]1[C@@H](O)[C@@H](C)O[C@H](O[C@H]2[C@H](Oc3cccc4c(O)c5c(=O)oc6ccc(C)c7c(=O)oc(c34)c5c67)O[C@H](C)[C@H](O)[C@@H]2O)[C@@H]1O [NSC5159] | -38.07%
21 | Nc1nc(N)c(N=Nc2ccccc2)c(=O)[nH]1 [NSC5200] | -51.63%
22 | Nc1ccccc1N [NSC5354] | 0%
23 | CC(=O)c1c(O)c(C)c(O)c2c1OC1=CC(=O)C(C(C)=O)C(=O)C12C (centres unmarked) [NSC5890] | -32.64%
24 | O=C1c2cccc(O)c2C(=O)c2c(O)cccc21 [NSC7210] | -48.97%
25 | C[C@@H]1O[C@@H](O[C@@H]2C=C3CC[C@@H]4[C@H](CC[C@]5(C)[C@@H](c6ccc(=O)oc6)CC[C@]45O)[C@@]3(C)CC2)[C@H](O)[C@H](O)[C@H]1O[C@@H]1O[C@H](CO)[C@@H](O)[C@H](O)[C@H]1O [NSC7525] | -34.67%
26 | CO[C@H]1C[C@H](O[C@H]2CC[C@]3(C=O)[C@H]4CC[C@]5(C)[C@@H](C6=CC(=O)OC6)CC[C@]5(O)[C@@H]4CC[C@]3(O)C2)O[C@H](C)[C@H]1O[C@@H]1O[C@H](CO[C@@H]2O[C@H](CO)[C@@H](O)[C@H](O)[C@H]2O)[C@@H](O)[C@H](O)[C@H]1O [NSC7530] | -3.24%

Row | Compound | MEAN CpLDH INHIBITION (%)
27 | CC(=O)O[C@H]1C[C@H](O[C@H]2[C@@H](O)C[C@H](O[C@H]3[C@@H](O)C[C@H](O[C@H]4CC[C@@]5(C)[C@H](CC[C@@H]6[C@@H]5CC[C@]5(C)[C@@H](C7=CC(=O)OC7)CC[C@]65O)C4)O[C@@H]3C)O[C@@H]2C)O[C@H](C)[C@H]1O[C@@H]1O[C@H](CO)[C@@H](O)[C@H](O)[C@H]1O [NSC7532] | -151.91%
28 | Nc1ccc(N)c2c1C(=O)c1ccccc1C2=O [NSC7833] | -11.00%
29 | COc1ccc2nc(C)cc(NCCCCCCCCCNc3cc(C)nc4ccc(OC)cc34)c2c1 [NSC10010] | -19.54%
30 | CC(C)=CC1C(C(=O)O)C1(C)C (centres unmarked) [NSC11779] | -22.15%
31 | CC1=C(O)c2ccccc2C(=O)C1=O [NSC11897] | -2.25%
32 | CC(C)=CCC1=C(O)c2ccccc2C(=O)C1=O [NSC11905] | -39.26%
33 | COc1cccc2c1cc([N+](=O)[O-])c1c(C(=O)O)cc3c(c12)OCO3 [NSC11926] | -19.30%
34 | CN(C)CCOc1ccc(I)cc1Cc1ccccc1.Cl [NSC11930] | -34.92%
35 | O=c1c(Br)c(-c2ccccc2)[nH]c2ccccc12 [NSC12825] | -13.98%
36 | Nc1ccc2c(c1)S(=O)(=O)c1cc(N)ccc1-2 [NSC13966] | -21.73%
37 | Cc1cc2cc3cc(C)c(N)cc3nc2cc1N.Cl [NSC13973] | -3.43%
38 | CC1=CC(O)C(O)C2(C)C1CC1OC(=O)C(O)C3C(C)C(O)C4(O)OCC13C42 (centres unmarked) [NSC14974] | 0.167%
39 | O=[N+]([O-])[O-].O=[N+]([O-])[O-].O=[N+]([O-])[O-].[Ga+3] [NSC15200] | -34.76%
40 | CC[C@H](C)[C@@H]1NC(=O)[C@@H](NC(=O)c2c3nc4c(C(=O)N[C@@H]5C(=O)N[C@@H](C(C)C)C(=O)N6CCC[C@H]6C(=O)N(C)CC(=O)N(C)[C@@H](C(C)C)C(=O)O[C@@H]5C)ccc(C)c4oc-3c(C)c(=O)c2N)[C@@H](C)OC(=O)[C@H](C(C)C)N(C)C(=O)CN(C)C(=O)[C@@H]2CCCN2C1=O [NSC18268] (I: TIP[Sar][NMeV] / II: TVP[Sar][NMeV]; ester I:1-I:C, II:1-II:C; linker I:N-II:N via Actinocin(1to9)) | -2.01%
41 | CC(C)c1cccc(O)c(=O)c1 [NSC18804] | -36.91%
42 | CC(C)c1ccc(O)c(=O)cc1 [NSC18805] | -40.28%
43 | CN(C)CCCN1c2ccccc2Sc2ccc3ccccc3c21 [NSC18891] | -7.99%
44 | CCCCCCCCCCCCC(O)C(=O)O (centres unmarked) [NSC18938] | -83.85%
45 | CCN(CC)CCOc1ccc(C(O)(Cc2ccc(OC)cc2)c2ccccc2)cc1 (centres unmarked) [NSC19857] | -57.96%
46 | COC(=O)[C@@H]1[C@H](O)[C@H](C)[C@H](O)[C@H](C)/C=C\C=C(/C)C(=O)Nc2c(C)c(OC(C)=O)c3c(c2O)C(=O)C(C)=C2OCOC(=C23)/C(C)=C/[C@@](C)(O)[C@H](O)[C@@H](C)[C@H]1O [NSC19990] | -27.23%
47 | Nc1nc2c(ncn2[C@@H]2O[C@H](CO)[C@@H](O)[C@H]2O)c(=O)[nH]1 [NSC19994] | -14.24%
48 | CCCCOCc1cc(CN2CCN(C)CC2)c(O)c2ncccc12 [NSC20514] | -30.20%
49 | C[C@]12CC[C@@H]3c4ccccc4CC[C@H]3[C@@H]1CC[C@@H]2O [NSC22194] | -50.61%
50 | C[C@H](CN(C)C)C(=O)c1ccccc1C(=O)O [NSC22992] | -3.61%
51 | CN(CCc1ccccn1)c1ccc2c(c1)C(=O)c1ccccc1-2 [NSC24048] | -65.48%
52 | CN(C)CCCN1c2ccc3ccccc3c2Sc2cccc(Cl)c21 [NSC24113] | -11.52%

Row | Compound | MEAN CpLDH INHIBITION (%)
53 | COc1cc([C@@H]2c3cc4c(c(O)c3C[C@H]3COC(=O)[C@@H]32)OCO4)cc(OC)c1O [NSC24817] | -20.22%
54 | COc1cc([C@@H]2c3cc4c(c(O)c3C[C@H]3COC(=O)[C@@H]32)OCO4)cc(OC)c1OC [NSC24819] | -66.99%
55 | CC(C)C1=CC2=CC[C@@H]3[C@](C)(CCC[C@@]3(C)C(=O)O)[C@H]2CC1 [NSC25149] | -16.60%
56 | OC(CN1CCCCC1)c1ccc(/C=C/c2ccc(Cl)cc2)cc1 (centres unmarked) [NSC26040] | -70.84%
57 | O=C1Nc2c(Cl)cc(Cl)cc2C1=O [NSC26045] | -41.99%
58 | OCC1OC(n2cnc3c(SCc4ccccc4)ncnc32)C(O)C1O (centres unmarked) [NSC26273] | -4.046%
59 | Cc1c2ccc3ccccc3c2c[n+]2ccccc12.[Cl-] [NSC28002] | -26.04%
60 | Cl.Nc1nc(N)c2ncn(-c3ccccc3)c2n1 [NSC29603] | -54.90%
61 | O=C([O][Hg][CH2]C1COC([CH2][Hg][O]C(=O)c2ccccc2)CO1)c1ccccc1 (centres unmarked) [NSC30916] | -5.35%
62 | Nc1ccc2nc3ccc(=O)cc-3n(-c3ccccc3)c2c1 [NSC31702] | -41.86%
63 | NC(=O)NO [NSC32065] | -2.35%
64 | CC(/C=N/N=C(N)N)=N\N=C(N)N [NSC32946] | -50.60%
65 | COc1c(O[C@@H]2O[C@H](CO)[C@@H](O)[C@H](O)[C@H]2O)cc2c(c1OC)-c1ccc(OC)c(=O)cc1[C@@H](NC(C)=O)CC2 [NSC32992] | -5.35%
66 | Oc1ccc(-c2nc3ccccc3s2)cc1 [NSC33004] | -8.80%
67 | COc1cc2c(c(OC)c1OC)-c1ccc(OC)c(=O)cc1[C@@H](NC(=O)c1ccccc1)CC2 [NSC33410] | -43.24%
68 | CCN1C=C/C(=C\C=C\c2cc[n+](CC)c3ccccc23)c2ccccc21.[I-] [NSC34391] | -25.08%
69 | COc1c2c(c(OC)c3c1c(=O)c1ccccc1n3C)OCO2 [NSC34757] | -24.18%
70 | O=C(C[n+]1ccc2ccccc2c1)c1ccc2ccc3ccccc3c2c1 [NSC35489] | -39.94%
71 | Nc1nc(SCCc2ccccc2)c2[nH]cnc2n1 [NSC35866] | -7.39%
72 | O=S1(=O)CCN(c2ccccc2CC(c2c[nH]c3ccccc23)c2c[nH]c3ccccc23)CC1 [NSC35949] | -34.03%
73 | C=C1C(=O)OC2CC1C(OC(C)=O)C/C(C)=C/CC/C(C)=C\CCC2(C)O (centres unmarked) [NSC36437] | -19.06%
74 | C[C@@H]1C[C@H]2OC(=O)[C@@]3(C)CCC[C@@](C)([C@@H]23)[C@@]1(O)CCc1ccoc1 [NSC36693] | -16.69%
75 | Nc1nc(SCc2ccccc2Cl)c2[nH]cnc2n1 [NSC36826] | -1.63%
76 | COc1nc(N)nc2nc[nH]c12 [NSC37364] | -36.91%
77 | O=C1C(CN2CCCCC2)CCCC1CN1CCCCC1 (centres unmarked) [NSC39202] | -37.56%

Source: publication PMC6687188, “Novel lactate dehydrogenase inhibitors with in vivo efficacy against Cryptosporidium parvum” (PLoS Pathogens, 2019)
